The values that follow come from ChEMBL document CHEMBL1201862, “PubChem BioAssay data set” (2004).

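Assay format: 96-well plates, 48-hour exposure. At the GI50, growth is halved.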 The source made the active and inactive calls. Cut-off read from the data, not from the text of the source: active = GI50 up to about 1.1 µM and inactive = higher. A value given as a limit tells only on which side of the number the result lay.

What all share (assay): NCI tumour cell line growth inhibition, 48 h
Experiment [1] concerns HCT-15.
The subject of experiment [2] is SN12C.
Experiment [3] concerns CAKI-1.
Experiment [4] has as its system T47D.
The test system of experiment [5] is NCI-H460.
Experiment [6] has as its system BT-549.
Experiment [7] concerns SW-620.
The test system of experiment [8] is PC-3.
The subject of experiment [9] is KM12.
In experiment [10] the test system is TK-10.
In experiment [11] the test system is SF-268.
Experiment [12] deals with HOP-92.
Experiment [13] relates to K562.
In experiment [14] the test system is ACHN.
Experiment [15] has as its system NCI-H522.
Experiment [16] relates to UACC-62.
For experiment [17], the system named is A549.
The subject of experiment [18] is LOX IMVI.
The subject of experiment [19] is SR.
In experiment [20] the test system is MCF7.

For `CC(C)(C)OC(=O)N(CCCCN(CCCNC(=O)C(F)(F)F)C(=O)OC(C)(C)C)CCCNC(=O)C(F)(F)F`, the GI50 in experiment [1] is > 100 µM; in experiment [2], > 100 µM (inactive); in experiment [3] it was 47.1 µM (inactive); in experiment [4], > 100 µM (inactive); in experiment [5], > 100 µM (inactive); in experiment [6], > 100 µM (inactive). The GI50 in [7], in experiment [8], in experiment [9], in [10], in experiment [11] and in [12] was > 100 µM (inactive) in each case. Also, the GI50 in [13] was 98.9 µM (inactive); in experiment [14] it was > 100 µM (inactive); in experiment [15], 24 µM (inactive); in experiment [16], > 100 µM (inactive); in experiment [17] it was > 100 µM (inactive); in experiment [18], > 100 µM (inactive). For the same compound, the GI50 in [19] and in experiment [20] was > 100 µM (inactive) throughout.
In the case of `CC(=O)OCC1OC(n2c(-c3cccs3)c3c(c(C#N)c2=S)-c2ccccc2CC3)C(OC(C)=O)C(OC(C)=O)C1OC(C)=O` (centres undefined), the GI50 was 8.26 µM in [1]; 20.2 µM (inactive) in experiment [2]; 9.59 µM (inactive) in experiment [3]; 5.07 µM (inactive) in [4]; 11.5 µM (inactive) in [5]; 11.7 µM (inactive) in experiment [6]. Also, the GI50 in experiment [7] was 15.5 µM (inactive); in [8], 9.04 µM (inactive); in experiment [9] it was 9.14 µM (inactive); in experiment [10], 6.19 µM (inactive); in experiment [11] it was 14.9 µM (inactive); in experiment [12], 2.51 µM (inactive). Moreover, the GI50 in experiment [13] is 4.37 µM (inactive); in experiment [14] it was 9.64 µM (inactive); in experiment [15], 10.7 µM (inactive); in experiment [16] it was 4.17 µM (inactive); in experiment [17], 13.2 µM (inactive); in experiment [18], 6.82 µM (inactive). Besides, the GI50 in experiment [19] was 3.05 µM (inactive); in experiment [20], 6.01 µM (inactive).
For `CCOC(=O)[C@H](CO)NC1=C(Cl)C(=O)c2c(O)ccc(O)c2C1=O`, the GI50 in experiment [1] is > 10 µM; in experiment [2] it was > 10 µM (inactive); in experiment [3], > 10 µM (inactive); in [4], > 10 µM (inactive); in [5] it was > 10 µM (inactive); in [6], > 10 µM (inactive). The GI50 in [7], in [8], in experiment [9], in experiment [10], in experiment [11] and in experiment [12] was > 10 µM (inactive) each time. Besides, the GI50 in experiment [13], in experiment [14], in [15], in experiment [16], in [17] and in experiment [18] was > 10 µM (inactive) in each case. Also, the values for the GI50 in experiment [19] and in [20] were 5.22 µM (inactive) and 3.21 µM (inactive), respectively.
Turning to `Cc1ccc(S(=O)(=O)N/N=C2\CCC3(O)CC2(C)CCC2C3CC2(C)C)cc1` (centres undefined), the GI50 in experiment [1] is 36.2 µM; in experiment [2], 57.8 µM (inactive); in experiment [3], 37.2 µM (inactive); in [4], 35.1 µM (inactive); in [5], 19.3 µM (inactive); in experiment [6] it was 65.3 µM (inactive). Moreover, the GI50 is 78 µM (inactive) in experiment [7]; 22 µM (inactive) in [8]; 35.6 µM (inactive) in [9]; 29.2 µM (inactive) in experiment [10]; 37.4 µM (inactive) in [11]; 28.4 µM (inactive) in experiment [12]. In addition, the GI50 is > 100 µM (inactive) in experiment [13]; 31.8 µM (inactive) in [14]; 20.9 µM (inactive) in [15]; 36.6 µM (inactive) in [16]; 33.4 µM (inactive) in experiment [17]; 32.1 µM (inactive) in [18]. Further, the results for the GI50 in experiment [19] and in experiment [20] were > 100 µM (inactive) and 39.6 µM (inactive), respectively.
Regarding `CCOC(=O)c1cc(-c2ccc(OC)c(OC)c2)c[nH]1`, the GI50 in experiment [1] is > 10 µM; in [2], > 10 µM (inactive); in experiment [3], > 10 µM (inactive); in experiment [4], > 10 µM (inactive); in experiment [5], > 10 µM (inactive); in experiment [6], > 10 µM (inactive). Also, the GI50 in [8], in experiment [9], in experiment [10], in experiment [11], in experiment [12] and in experiment [13] was > 10 µM (inactive) each time. Moreover, the GI50 in experiment [14], in experiment [15], in experiment [16], in [17], in [18] and in [19] was > 10 µM (inactive) in each case. Also, in experiment [20], the GI50 is > 10 µM (inactive).
For the compound `O=C1C=CC(=O)c2c1ccc1c3ccccc3n(CCCCCCCCCCCCn3c4ccccc4c4ccc5c(c43)C(=O)C=CC5=O)c21`, the GI50 in experiment [1] was > 100 µM; in [2], > 100 µM (inactive); in experiment [3], > 100 µM (inactive); in [4], > 100 µM (inactive); in [5] it was > 100 µM (inactive); in experiment [6], > 100 µM (inactive). Moreover, the GI50 in [7], in experiment [8], in experiment [9], in experiment [10], in [11] and in experiment [12] was > 100 µM (inactive) each time. For the same compound, the GI50 in experiment [13] is > 72.4 µM (inactive); in [14] it was > 100 µM (inactive); in experiment [15], > 83.6 µM (inactive); in [16], > 100 µM (inactive); in [17], > 100 µM (inactive); in experiment [18], > 100 µM (inactive). Further, the GI50 in experiment [19] was 50.5 µM (inactive); in experiment [20] it was > 100 µM (inactive).
Regarding `O=C(OC(/C=C/c1ccccc1)P1(=O)N(Cc2ccccc2)[C@@H]2CCCC[C@H]2N1Cc1ccccc1)c1ccccc1` (some centres undefined), the GI50 in experiment [1] is 3.44 µM; in experiment [2], 3.03 µM (inactive); in experiment [3], 3.56 µM (inactive); in experiment [4], 4.43 µM (inactive); in experiment [5], 2.91 µM (inactive); in experiment [6], 4.26 µM (inactive). Moreover, the GI50 in experiment [7] is 4.57 µM (inactive); in experiment [8] it was 3.16 µM (inactive); in [9], 3.57 µM (inactive); in experiment [10] it was 4.82 µM (inactive); in experiment [11], 6.37 µM (inactive); in [12], 2.08 µM (inactive). For the same compound, the GI50 is 3.37 µM (inactive) in [13]; 3.81 µM (inactive) in [14]; 3.17 µM (inactive) in experiment [15]; 5.3 µM (inactive) in experiment [16]; 3.94 µM (inactive) in [17]; 3.57 µM (inactive) in experiment [18]. The GI50 in experiment [19] was 2.81 µM (inactive); in [20], 3.52 µM (inactive).
As for `Nc1ncnc2oc(C3OC(COC(=O)c4ccccc4)C(OC(=O)c4ccccc4)C3OC(=O)c3ccccc3)nc12` (centres undefined), the GI50 in [1] was > 100 µM; in experiment [2], > 100 µM (inactive); in experiment [3], > 100 µM (inactive); in experiment [4] it was 21.1 µM (inactive); in experiment [5] it was > 100 µM (inactive); in [6] it was > 100 µM (inactive). Moreover, the GI50 is > 100 µM (inactive) in experiment [7]; 98.6 µM (inactive) in experiment [8]; > 100 µM (inactive) in experiment [9]; > 100 µM (inactive) in experiment [10]; > 100 µM (inactive) in experiment [11]; > 100 µM (inactive) in experiment [12]. For the same compound, the GI50 is > 100 µM (inactive) in experiment [13]; > 100 µM (inactive) in experiment [14]; > 100 µM (inactive) in experiment [15]; 74.8 µM (inactive) in experiment [16]; > 100 µM (inactive) in experiment [17]; > 100 µM (inactive) in experiment [18]. The GI50 in experiment [19] and in [20] was > 100 µM (inactive) in each case.
For the compound `FC(F)(F)c1ccc(C2ON=C(c3ccccc3)N2C23CC4CC(CC(C4)C2)C3)cc1` (centres undefined), the GI50 in [1] was > 10 µM; in experiment [2], > 10 µM (inactive); in experiment [3] it was > 10 µM (inactive); in experiment [4], > 10 µM (inactive); in experiment [5], > 10 µM (inactive); in [6], > 10 µM (inactive). The GI50 in experiment [7], in experiment [8], in experiment [9], in experiment [10], in [11] and in [12] was > 10 µM (inactive) each time. The GI50 in experiment [13], in experiment [14], in [15], in experiment [16], in [17] and in experiment [18] was > 10 µM (inactive) each time. Besides, the GI50 is > 10 µM (inactive) in experiment [19] and 1.39 µM (inactive) in experiment [20].
Consider `CCN(CC)CCNc1ccc2ncn3c4cc(OC)c(OC)c(O)c4c(=O)c1c23`, for which the GI50 in [1] is 9.91 µM; in experiment [2], 6.47 µM (inactive); in [3], 14 µM (inactive); in [4] it was 21.8 µM (inactive); in experiment [5], 1.39 µM (inactive); in experiment [6], 16.3 µM (inactive). Also, the GI50 was 1.4 µM (inactive) in [7]; 6.52 µM (inactive) in experiment [8]; 7 µM (inactive) in experiment [9]; 13.8 µM (inactive) in [10]; 3.49 µM (inactive) in [11]; 1.61 µM (inactive) in [12]. The GI50 in [13] is 5.89 µM (inactive); in experiment [14], 3.76 µM (inactive); in experiment [15], 12.6 µM (inactive); in experiment [16], 16.6 µM (inactive); in experiment [17] it was 11.9 µM (inactive); in [18] it was 1.24 µM (inactive). The GI50 is 1.29 µM (inactive) in experiment [19] and 2.88 µM (inactive) in [20].
